Results taken from US6492366B1, “Cyano-indole serotonin-reuptake inhibitor compound” (Les Laboratoires Servier, priority 1999, dated 2002).
pKi: −log10 of the molar value.

Key:
serotonin-reuptake sites = biological target: T1, serotonin-reuptake sites (Rattus norvegicus, UniProt P31652); assay: Determination of affinity for serotonin-reuptake sites in the rat ([3H]-paroxetine competition); type: binding; details: rat frontal cortex membranes, 0.25 nM [3H]-paroxetine, 2 hours at 25° C.
T1 construct: The membranes are prepared from rat frontal cortex; from tissue; host or cells: rat frontal cortex membranes
T1 sequence (P31652 whole entry): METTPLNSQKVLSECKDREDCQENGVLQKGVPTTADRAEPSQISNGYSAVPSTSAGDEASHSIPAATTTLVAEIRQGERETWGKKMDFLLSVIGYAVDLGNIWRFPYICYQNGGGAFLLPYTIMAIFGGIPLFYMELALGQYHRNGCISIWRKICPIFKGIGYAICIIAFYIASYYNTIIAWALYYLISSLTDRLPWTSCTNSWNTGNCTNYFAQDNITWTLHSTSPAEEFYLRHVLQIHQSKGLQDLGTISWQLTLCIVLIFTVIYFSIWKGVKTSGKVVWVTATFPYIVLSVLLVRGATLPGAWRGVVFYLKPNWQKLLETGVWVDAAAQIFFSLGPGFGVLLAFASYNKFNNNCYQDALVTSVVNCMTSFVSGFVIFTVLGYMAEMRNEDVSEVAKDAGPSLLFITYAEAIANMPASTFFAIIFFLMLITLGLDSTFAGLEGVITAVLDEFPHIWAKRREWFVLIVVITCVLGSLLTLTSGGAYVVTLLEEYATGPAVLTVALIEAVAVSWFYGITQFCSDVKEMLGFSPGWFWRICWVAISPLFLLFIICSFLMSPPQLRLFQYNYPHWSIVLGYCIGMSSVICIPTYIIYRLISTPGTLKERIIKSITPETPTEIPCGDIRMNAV
Experimental: Determination of Affinity for Serotonin-reuptake Sites in the Rat The affinity of the compounds of the invention was determined by competition experiments with [^3H]-paroxetine. The membranes are prepared from rat frontal cortex and are incubated in triplicate with 0.25 nM [^3H]-paroxetine and the cold ligand in a final volume of 0.4 ml, for 2 hours at 25° C. The incubation buffer contains 50 mM TRIS-HCl (pH 7.4), 120 mM NaCl and 5 mM KCl. Non-specific binding is determined using 10 μM citalopram. At the end of the incubation, the mixture is filtered through filters and washed three times with 5 ml of cooled buffer. The radioactivity retained on the filters is determined by liquid scintillation counting. The binding isotherms are analysed by non-linear regression to determine the IC50 values. The latter are converted into a dissociation constant (Ki) using the Cheng-Prusoff equation: Ki=IC50/[…] wherein L is the concentration of [^3H]-paroxetine and Kd is the dissociation constant (0.13 nM).

[1] = test system: spontaneous marble-burying behaviour of mice; assay: Marble-burying test in mice; type: in vivo; details: Mus musculus, 0.5 h; male NMRI mice, 24 marbles, 30 minutes' free exploration; read-out: ED50 (Efficacy dose 50), inhibition of marble-burying
Text: Marble-burying Test in Mice This test enables evaluation of the capacity of pharmacological agents to inhibit the spontaneous marble-burying behaviour of mice, the inhibition being predictive of antidepressant and/or anti-impulsive action. Male mice of the NMRI strain weighing from 20 to 25 g on the day of the experiment are placed individually in Macrolon boxes (30×18×19 cm) containing 5 cm of sawdust and covered with a perforated plexiglass plate. Twenty four “tiger's eye” glass marbles are evenly distributed on the sawdust at the periphery of the box. At the end of 30 minutes' free exploration, the animals are removed from the box and the number of buried marbles is counted.

pKi (serotonin-reuptake sites) | SMILES | ED50 [1]
9.40 | Cl.N#Cc1ccc2[nH]cc(CC3CCN(CCc4cc5c(cc4Cl)NC(=O)C5)C3)c2c1 (stereo not drawn) [Example 6, 3-({1-[2-(6-Chloro-2-oxo-2,3-dihydro-1H-indol-5-yl)ethyl]-3-pyrrolidinyl}methyl)-1H-indole-5-carbonitrile Hydrochloride] | 3.8 mg/kg
– | Cl.N#Cc1ccc2[nH]cc(CC3CCN(CCc4ccc5c(c4)CC(=O)N5)C3)c2c1 (stereo not drawn) [Example 7, 3-({1-[2-(2-Oxo-2,3-dihydro-1H-indol-5-yl)ethyl]-3-pyrrolidinyl}-methyl)-1H-indole-5-carbonitrile Hydrochloride] | 1.5 mg/kg
